Reference: patent publication US9492444B2, “Extruded extended release abuse deterrent pill” (Pharmaceutical Manufacturing Research Services, Inc., priority 2013, dated 2016)

What was measured:
[1] = General solubility of exemplary components; assay type: physicochemical; conditions: 200 proof ethanol, filtered through 0.22 micrometer PTFE filter
Description: The following table lists the relative solubility of exemplary components of a formulation. A number of different dyes are listed along with their solubility information taken from the various literature sources and tested experimentally (200 proof ethanol and filtered through a 0.22 micrometer PTFE filter).

[2] = cited from earlier work

CCN(Cc1cccc(S(=O)(=O)[O-])c1)c1ccc(C(=C2C=CC(=[N+](CC)Cc3cccc(S(=O)(=O)[O-])c3)C=C2)c2ccccc2S(=O)(=O)[O-])cc1.[Na+].[Na+] [Blue #1]
Yes: Alcohol Solubility (tested) [1] | Alcohol Solubility (Literature) [2] | Water Solubility [2]

O=C1/C(=C2\Nc3ccc(S(=O)(=O)[O-])cc3C2=O)Nc2ccc(S(=O)(=O)[O-])cc21.[Na+].[Na+] [Blue #2]
Yes: Alcohol Solubility (tested) [1] | Alcohol Solubility (Literature) [2] | Water Solubility [2]

COc1cc(S(=O)(=O)[O-])c(C)cc1N=Nc1c(O)ccc2cc(S(=O)(=O)[O-])ccc12.[Na+].[Na+] [Red #40]
Yes: Alcohol Solubility (tested) [1] | Alcohol Solubility (Literature) [2] | Water Solubility [2]

O=C([O-])C1=NN(c2ccc(S(=O)(=O)[O-])cc2)C(=O)C1N=Nc1ccc(S(=O)(=O)[O-])cc1.[Na+].[Na+].[Na+] (stereo not drawn) [Yellow #5]
Yes: Alcohol Solubility (tested) [1] | Alcohol Solubility (Literature) [2] | Water Solubility [2]
